Laboratory results published in patent US12252524B2, “GIP/GLP1 co-agonist compounds” (Eli Lilly and Company, priority 2018, dated 2025).
Read-outs that look alike come from different tables or passages of the source. Numbered stars: 1 amine (or outer) side, 2 acyl side, 3 side chain; on linkers, the order of the positions; unused ones are H or OH. Square brackets hold non-standard residues; d marks the D form. Side chains are listed from the residue outwards. Peptide text beside a SMILES is read from it. * marks the point of attachment. C20 diacid = O=C(O)CCCCCCCCCCCCCCCCCCC(=O)*; C18 diacid = O=C(O)CCCCCCCCCCCCCCCCC(=O)*; γGlu = O=C(O)[C@H](CCC(=O)[*:2])N[*:1]; αMeF = C[C@](N)(Cc1ccccc1)C(=O)O; αMeL = CC(C)C[C@](C)(N)C(=O)O; AEEA = NCCOCCOCC(=O)O; Aib = CC(C)(N)C(=O)O

Assays:
[1] = biological target: T1, human GIP receptor (Homo sapiens, UniProt P48546); experiment: [125I]-GIP binding (SPA), human GIP receptor
T1 construct: expressed in transfected cells; crude membranes
T1 sequence (P48546 22-466): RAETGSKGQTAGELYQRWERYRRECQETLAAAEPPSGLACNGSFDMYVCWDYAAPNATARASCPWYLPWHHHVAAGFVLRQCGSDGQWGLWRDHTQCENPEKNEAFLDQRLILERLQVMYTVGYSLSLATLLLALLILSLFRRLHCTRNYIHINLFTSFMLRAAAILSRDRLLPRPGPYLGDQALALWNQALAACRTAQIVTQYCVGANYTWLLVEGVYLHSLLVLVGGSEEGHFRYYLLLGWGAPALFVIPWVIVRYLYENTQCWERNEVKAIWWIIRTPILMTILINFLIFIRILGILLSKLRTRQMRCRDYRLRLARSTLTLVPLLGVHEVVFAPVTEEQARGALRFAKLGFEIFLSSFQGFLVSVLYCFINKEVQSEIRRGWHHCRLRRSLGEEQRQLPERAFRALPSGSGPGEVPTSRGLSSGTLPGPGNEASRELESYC

[2] = biological target: human GLP-1R (Homo sapiens, UniProt P43220); experiment: [125I]-GLP-1 binding (SPA), human GLP-1 receptor; parameters: expressed in transfected cells; crude membranes
In short: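 Ki values are geometric means with SEM over independent replicates on different days, derived from IC50s fitted by four-parameter nonlinear regression. The assay used crude cell membranes in HEPES buffer, pH 7.4, containing CaCl2, MgCl2, bacitracin and TWEEN-20.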

[3] = system: CD8+ T cell depleted peripheral blood mononuclear cells; experiment: CD4+ T cell assay for potential clinical immunogenicity
Protocol: The purpose of this study is to determine the relative potential for clinical immunogenicity of a compound.
CD8+ T cell depleted peripheral blood mononuclear cells are prepared and labeled with Carboxyfluorescein Diacetate Succinimidyl Ester (CFSE, Invitrogen) from a cohort of 10 healthy donors. […] Cultures are incubated for 7 days at 37° C. with 5% CO2. On day 7, samples are analyzed by flow cytometry using High Throughput Sampler (HTS). Data is analyzed using FlowJo® Software (FlowJo, LLC, TreeStar).

[4] = read-out: hGIPR Ki, nM (SEM, n)
[5] = read-out: hGLP1R Ki, (nM) (SEM, n)

Chain of human GLP-1R (P43220 24-463): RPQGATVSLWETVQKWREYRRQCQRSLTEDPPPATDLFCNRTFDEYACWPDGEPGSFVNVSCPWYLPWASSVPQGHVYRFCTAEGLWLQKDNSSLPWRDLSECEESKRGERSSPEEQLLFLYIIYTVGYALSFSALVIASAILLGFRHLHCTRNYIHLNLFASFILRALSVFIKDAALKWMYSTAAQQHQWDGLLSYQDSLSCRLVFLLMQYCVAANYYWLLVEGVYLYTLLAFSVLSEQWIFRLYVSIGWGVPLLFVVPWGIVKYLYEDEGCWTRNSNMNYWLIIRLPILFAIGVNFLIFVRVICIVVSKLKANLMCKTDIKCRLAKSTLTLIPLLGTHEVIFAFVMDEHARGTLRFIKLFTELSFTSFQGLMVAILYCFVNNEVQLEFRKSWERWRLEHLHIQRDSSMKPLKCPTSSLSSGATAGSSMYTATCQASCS

Row | SMILES | Ki [1] | Ki [2] | frequency of positive CD+ T cell response (CDI>2.5) ([3]; CD4+ T cell assay) | % Donor Response (CD4+ T cell response) ([3]; Examples 10 uM, KLH 0.33 μM, 7 days) | Ki [1, 4] | Ki [2, 5]
1 | CC[C@H](C)[C@H](NC(=O)[C@H](CC(C)C)NC(=O)[C@](C)(Cc1ccc(O)cc1)NC(=O)[C@@H](CCC(=O)O)NC(=O)[C@@H](NC(=O)[C@H](Cc1ccccc1)NC(=O)[C@H](CCC(=O)O)NC(=O)C(C)(C)NC(=O)[C@H](CCC(N)=O)NC(=O)[C@H](C)NC(=O)[C@H](CCCCNC(=O)COCCOCCNC(=O)COCCOCCNC(=O)CC[C@H](NC(=O)CCCCCCCCCCCCCCCCC(=O)O)C(=O)O)NC(=O)[C@H](CCCN)NC(=O)[C@H](CC(=O)O)NC(=O)[C@H](CC(C)C)NC(=O)[C@](C)(CC(C)C)NC(=O)[C@@H](NC(=O)[C@H](CO)NC(=O)[C@H](Cc1ccncc1)NC(=O)[C@H](CC(=O)O)NC(=O)[C@H](CO)NC(=O)[C@@H](NC(=O)[C@](C)(Cc1ccccc1F)NC(=O)[C@@H](NC(=O)CNC(=O)[C@H](CCC(=O)O)NC(=O)C(C)(C)NC(=O)[C@@H](N)Cc1ccc(O)cc1)[C@@H](C)O)[C@@H](C)O)[C@@H](C)CC)[C@@H](C)CC)C(=O)N[C@@H](CCC(=O)O)C(=O)NCC(=O)NCC(=O)N1CCC[C@H]1C(=O)N[C@@H](CO)C(=O)N[C@@H](CO)C(=O)NCC(=O)N[C@@H](C)C(=O)N1CCC[C@H]1C(=O)N1CCC[C@H]1C(=O)N1CCC[C@H]1C(=O)N[C@@H](CO)C(N)=O [Example 4] | 0.0528 nM | 1.63 nM | low | 0% |  | 
2 | CC[C@H](C)[C@H](NC(=O)[C@H](CC(C)C)NC(=O)[C@H](Cc1ccc(O)cc1)NC(=O)[C@H](CCC(=O)O)NC(=O)[C@@H](NC(=O)[C@H](Cc1ccccc1)NC(=O)[C@H](C)NC(=O)C(C)(C)NC(=O)[C@H](CCC(N)=O)NC(=O)[C@H](C)NC(=O)[C@H](CCCCNC(=O)COCCOCCNC(=O)COCCOCCNC(=O)CC[C@H](NC(=O)CCCCCCCCCCCCCCCCCCC(=O)O)C(=O)O)NC(=O)[C@H](CCCCN)NC(=O)[C@H](CC(=O)O)NC(=O)[C@H](CC(C)C)NC(=O)[C@H](CC(C)C)NC(=O)[C@@H](NC(=O)[C@H](CO)NC(=O)[C@H](Cc1ccc(O)cc1)NC(=O)[C@H](CC(=O)O)NC(=O)[C@H](CO)NC(=O)[C@@H](NC(=O)[C@H](Cc1ccccc1)NC(=O)[C@@H](NC(=O)CNC(=O)[C@H](CCC(=O)O)NC(=O)C(C)(C)NC(=O)[C@@H](N)Cc1ccc(O)cc1)[C@@H](C)O)[C@@H](C)O)[C@@H](C)CC)[C@@H](C)CC)C(=O)N[C@@H](C)C(=O)NCC(=O)NCC(=O)N1CCC[C@H]1C(=O)N[C@@H](CO)C(=O)N[C@@H](CO)C(=O)NCC(=O)N[C@@H](C)C(=O)N1CCC[C@H]1C(=O)N1CCC[C@H]1C(=O)N1CCC[C@H]1C(=O)N[C@@H](CO)C(N)=O [Example 288] (H-Y[Aib]EGTFTSDYSILLDKK([AEEA-AEEA-γGlu-C20 diacid])AQ[Aib]AFIEYLIAGGPSSGAPPPS-NH2; N-terminus assumed) |  |  |  |  | 0.058 nM | 1.6 nM
3 | CC[C@H](C)[C@H](NC(=O)[C@H](CC(C)C)NC(=O)[C@H](Cc1ccc(O)cc1)NC(=O)[C@H](CCC(=O)O)NC(=O)[C@@H](NC(=O)[C@H](Cc1ccccc1)NC(=O)[C@H](CCC(=O)O)NC(=O)C(C)(C)NC(=O)[C@H](CCC(N)=O)NC(=O)[C@H](C)NC(=O)[C@H](CCCCNC(=O)COCCOCCNC(=O)COCCOCCNC(=O)CC[C@H](NC(=O)CCCCCCCCCCCCCCCCCCC(=O)O)C(=O)O)NC(=O)[C@H](CCCCN)NC(=O)[C@H](CC(=O)O)NC(=O)[C@H](CC(C)C)NC(=O)[C@](C)(CC(C)C)NC(=O)[C@@H](NC(=O)[C@H](CO)NC(=O)[C@H](Cc1ccc(O)cc1)NC(=O)[C@H](CC(=O)O)NC(=O)[C@H](CO)NC(=O)[C@@H](NC(=O)[C@H](Cc1ccccc1)NC(=O)[C@@H](NC(=O)CNC(=O)[C@H](CCC(=O)O)NC(=O)C(C)(C)NC(=O)[C@@H](N)Cc1ccc(O)cc1)[C@@H](C)O)[C@@H](C)O)[C@@H](C)CC)[C@@H](C)CC)C(=O)N[C@@H](C)C(=O)NCC(=O)NCC(=O)N1CCC[C@H]1C(=O)N[C@@H](CO)C(=O)N[C@@H](CO)C(=O)NCC(=O)N[C@@H](C)C(=O)N1CCC[C@H]1C(=O)N1CCC[C@H]1C(=O)N1CCC[C@H]1C(=O)N[C@@H](CO)C(N)=O [Example 289] (H-Y[Aib]EGTFTSDYSI[αMeL]LDKK([AEEA-AEEA-γGlu-C20 diacid])AQ[Aib]EFIEYLIAGGPSSGAPPPS-NH2) |  |  |  |  | 0.0457 nM | 2.63 nM
4 | CC[C@H](C)[C@H](NC(=O)[C@H](CC(C)C)NC(=O)[C@H](Cc1ccc(O)cc1)NC(=O)[C@H](CCC(=O)O)NC(=O)[C@@H](NC(=O)[C@H](Cc1ccccc1)NC(=O)[C@H](C)NC(=O)C(C)(C)NC(=O)[C@H](CCC(N)=O)NC(=O)[C@H](C)NC(=O)[C@H](CCCCNC(=O)COCCOCCNC(=O)COCCOCCNC(=O)CC[C@H](NC(=O)CCCCCCCCCCCCCCCCC(=O)O)C(=O)O)NC(=O)[C@H](CCCCN)NC(=O)[C@H](CC(=O)O)NC(=O)[C@H](CC(C)C)NC(=O)[C@H](CC(C)C)NC(=O)[C@@H](NC(=O)[C@H](CO)NC(=O)[C@H](Cc1ccc(O)cc1)NC(=O)[C@H](CC(=O)O)NC(=O)[C@H](CO)NC(=O)[C@@H](NC(=O)[C@](C)(Cc1ccccc1)NC(=O)[C@@H](NC(=O)CNC(=O)[C@H](CCC(=O)O)NC(=O)C(C)(C)NC(=O)[C@@H](N)Cc1ccc(O)cc1)[C@@H](C)O)[C@@H](C)O)[C@@H](C)CC)[C@@H](C)CC)C(=O)N[C@@H](CCC(=O)O)C(=O)NCC(=O)NCC(=O)N1CCC[C@H]1C(=O)N[C@@H](CO)C(=O)N[C@@H](CO)C(=O)NCC(N)=O [Example 301] (H-Y[Aib]EGT[αMeF]TSDYSILLDKK([AEEA-AEEA-γGlu-C18 diacid])AQ[Aib]AFIEYLIEGGPSSG-NH2) |  |  |  |  | 0.0273 nM | 0.875 nM
5 | CC[C@H](C)[C@H](NC(=O)[C@H](CC(C)C)NC(=O)[C@H](Cc1ccc(O)cc1)NC(=O)[C@H](CCC(=O)O)NC(=O)[C@@H](NC(=O)[C@H](Cc1ccccc1)NC(=O)[C@H](C)NC(=O)C(C)(C)NC(=O)[C@H](CCC(N)=O)NC(=O)[C@H](C)NC(=O)[C@H](CCCCNC(=O)COCCOCCNC(=O)COCCOCCNC(=O)CC[C@H](NC(=O)CCCCCCCCCCCCCCCCC(=O)O)C(=O)O)NC(=O)[C@H](CCC(=O)O)NC(=O)[C@H](CC(=O)O)NC(=O)[C@H](CC(C)C)NC(=O)[C@](C)(CC(C)C)NC(=O)[C@@H](NC(=O)[C@H](CO)NC(=O)[C@H](Cc1ccc(O)cc1)NC(=O)[C@H](CC(=O)O)NC(=O)[C@H](CO)NC(=O)[C@@H](NC(=O)[C@H](Cc1ccccc1)NC(=O)[C@@H](NC(=O)CNC(=O)[C@H](CCC(=O)O)NC(=O)C(C)(C)NC(=O)[C@@H](N)Cc1ccc(O)cc1)[C@@H](C)O)[C@@H](C)O)[C@@H](C)CC)[C@@H](C)CC)C(=O)N[C@@H](CCC(=O)O)C(=O)NCC(=O)NCC(=O)N1CCC[C@H]1C(=O)N[C@@H](CO)C(=O)N[C@@H](CO)C(=O)NCC(N)=O [Example 303] (H-Y[Aib]EGTFTSDYSI[αMeL]LDEK([AEEA-AEEA-γGlu-C18 diacid])AQ[Aib]AFIEYLIEGGPSSG-NH2) |  |  |  |  | 0.058 nM | 3.69 nM
6 | CC[C@H](C)[C@H](NC(=O)[C@H](CC(C)C)NC(=O)[C@H](Cc1ccc(O)cc1)NC(=O)[C@H](CCC(=O)O)NC(=O)[C@@H](NC(=O)[C@H](Cc1ccccc1)NC(=O)[C@H](C)NC(=O)C(C)(C)NC(=O)[C@H](CCC(N)=O)NC(=O)[C@H](C)NC(=O)[C@H](CCCCNC(=O)COCCOCCNC(=O)COCCOCCNC(=O)CC[C@H](NC(=O)CCCCCCCCCCCCCCCCC(=O)O)C(=O)O)NC(=O)[C@H](CCCCN)NC(=O)[C@H](CC(=O)O)NC(=O)[C@H](CC(C)C)NC(=O)[C@H](CC(C)C)NC(=O)[C@@H](NC(=O)[C@H](CO)NC(=O)[C@H](Cc1ccc(O)cc1)NC(=O)[C@H](CC(=O)O)NC(=O)[C@H](CO)NC(=O)[C@@H](NC(=O)[C@H](Cc1ccccc1)NC(=O)[C@@H](NC(=O)CNC(=O)[C@H](CCC(=O)O)NC(=O)C(C)(C)NC(=O)[C@@H](N)Cc1ccc(O)cc1)[C@@H](C)O)[C@@H](C)O)[C@@H](C)CC)[C@@H](C)CC)C(=O)N[C@@H](C)C(=O)NCC(=O)NCC(=O)N1CCC[C@H]1C(=O)N[C@@H](CO)C(=O)N[C@@H](CO)C(=O)NCC(=O)N[C@@H](C)C(=O)N1CCC[C@H]1C(=O)N1CCC[C@H]1C(=O)N1CCC[C@H]1C(=O)N[C@@H](CO)C(N)=O [Example 316] (H-Y[Aib]EGTFTSDYSILLDKK([AEEA-AEEA-γGlu-C18 diacid])AQ[Aib]AFIEYLIAGGPSSGAPPPS-NH2) |  |  |  |  | 0.0418 nM | 0.957 nM
